The text below walks through data of patent publication EP0567205A1, “Use of opiate antagonists in the manufacture of agents for the diagnosis and therapy of hypothalamic function disorders” (Ferring Arzneimittel GmbH, priority 1986, dated 1988).

Entries after “also recorded” stand apart in the source; their conditions may differ.

The subject of data set [1] is Patientinnen, die an hypothalamischer Amenorrhoe litten. Nature of the data set: Naltrexon administration to patients with hypothalamic amenorrhea (serial blood sampling for LH, FSH, prolactin and ovarian steroids; ultrasound). The data set is classed as in vivo. From the text: Im Rahmen der vorliegenden Erfindung wurden Untersuchungen an Patientinnen mit hypothalamischer Amenorrhoe durchgeführt. Diese Untersuchungen haben überraschenderweise gezeigt, daß durch die Gabe des Opiat-Antagonisten Naltrexon eine Zunahme von Frequenz und Amplitude der LH und FSH Sekretion erreicht wird. Es kann daher davon ausgegangen werden, daß die endogene GnRH Sekretion durch den Opiat-Antagonisten vermehrt wird.
Die basale Gonadotropin Sekretion von Patientinnen, die an hypothalamischer Amenorrhoe litten, wurde durch Bestimmung von LH und FSH, Prolactin und Ovarien-Steroiden in ßlutproben bewertet, die alle zehn Minuten während 24 Stunden entnommen wurden. Naltrexon wurde dann in einer Dosis von 50 mg pro Tag während 24 oder 28 Tagen verabreicht. 5 Tage und 14 Tage nach dem Beginn der Naltrexonverabreichung wurden wiederholte Blutproben entnommen. An den übrigen Tagen wurden täglich Blutproben entnommen und es wurde eine Ultraschalluntersuchung nach der Naltrexonverabreichung sowie einige Tage danach durchgeführt. Es wurden folgende Ergebnisse ermittelt:
Auf die Verabreichung von Naltrexon folgte eine Zunahme der Frequenz und der Amplitude der pulsatielen Gonadotropin Sekretion sowie eine Zunahme der mittleren LH und FSH Serumkonzentration sowie der Entwicklung der Gonaden-Steroid Sekretion und der Follikel, was durch Ultraschall festgestellt wurde.

The conditions of data set [2]: general statement on the known drug; oral administration possible; cited from earlier work.
The mark [3] stands for this setting: hypothalamic amenorrhea, 50 mg pro Tag während 24 oder 28 Tagen.
Setting [4] is: patients with hypothalamic amenorrhea, summary statement.

Regarding `O=C1CC[C@@]2(O)[C@H]3Cc4ccc(O)c5c4[C@@]2(CCN3CC2CC2)C1O5` (stereo partly drawn) [Naltrexon, 17-(Cyclopropylmethyl)-4,5-epoxy-3,14-dihydroxymorphinan-6-on], the “Entwicklung der Follikel” value in data set [1] (by ultrasound, hypothalamic amenorrhea, 50 mg pro Tag während 24 oder 28 Tagen) was “Zunahme”. Besides, in data set [1] (setting [3]), the “Amplitude der pulsatielen Gonadotropin Sekretion” value is reported as “Zunahme”, the “Entwicklung der Gonaden-Steroid Sekretion” value is “Zunahme”, the “Frequenz der pulsatielen Gonadotropin Sekretion” value is “Zunahme” and the “mittlere FSH Serumkonzentration” value was “Zunahme”. Also, in data set [1] (setting [3]), the “mittlere LH Serumkonzentration” value is “Zunahme”. In data set [1] (patients who menstruated after withdrawal, hypothalamic amenorrhea, 50 mg pro Tag während 24 oder 28 Tagen), the “Menstruation nach Absetzen des Mittels” value was “Sämtliche Patientinnen menstruierten”. In addition, in data set [1] (patients who ovulated, hypothalamic amenorrhea, 50 mg pro Tag während 24 oder 28 Tagen), the Ovulation entry was “führte zur Normalisierung der Gonadotropin-Sekretion, zur Ovulation; also recorded: Eine von 3 Patientinnen ovulierte”. Moreover, in data set [1] (setting [4]), the “Bildung eines Corpus luteum” value is “zur Bildung eines Corpus luteum”, the Gonadotropin-Sekretion result is “Normalisierung” and the “menstrueller Zyklus” value was “Normalisierung”. The “Verweildauer im Plasma” value in data set [2] is on record as “lange”.
